This note sets out measurements from patent US20140099257A1, “Androgen Suppression, Prostate-Specific Membrane Antigen and the Concept of Conditionally Enhanced Vulnerability” (CORNELL UNIVERSITY, priority 2012, published 2014).

This data set concerns AR. Nature of the data set: Silencing of AR with siRNA in prostate cancer cell lines; AR, PSMA expression (FACS, western blot) and PSA secretion. In kind it is cell-based, human. Particulars: FACS analysis of LNCaP, MDA-Pca-2b and LAPC-4 cells (FIG. 6). The method, then:
For western blots, cells were lysed with Cell Lysis Buffer (Cell Signaling Technology, Danvers, Mass.) containing 1 mM phenylmethylsulphonyl fluoride (EMD Chemicals, Gibbstown, N.J.). Equal amounts of protein were applied in each well on a 10% Tris-HCl gel (Bio-Rad Laboratories, Hercules, Calif.). The proteins were transferred onto Immobilon-P Membranes (Millipore, Billerica, Mass.), after which the filters were probed with the following reagents: murine anti-PSMA mAb J591, murine mAb anti-AR (AR441), rabbit anti-human AR, murine mAb anti-human beta-actin, and/or goat polyclonal anti-GAPDH. For quantitative western blots, the Li-cor Odyssey Infrared Imaging System (Lincoln, Nebr.) was used. With this system, two different proteins of the same molecular weight (e.g., PSMA and AR) can be detected simultaneously and quantified on the same blot using two different antibodies from two different species (mouse and rabbit) followed by detection with two IRDye labeled secondary antibodies. […] After washing, the membranes were scanned and the bands were quantified with the Odyssey Infrared Imaging System.
Fluorescence-activated cell sorting (FACS) analysis was also employed in these examples0. […]
Background: In western blotting, separated proteins are transferred to a membrane and probed.

In the case of “non-targeted-siRNA: non-targeting control siRNA 5′-CCUACGCCACCAAUUUCGU-3′ (Dharmacon) (chemistry not given here)”, the AR expression entry is recorded as “did not affect expression” and the PSMA expression result is given as “did not affect expression”.
